Test: Passive diffusion of fluorophore through tripartite DIB network (intestinal space, enterocyte, blood compartments)
Type: in vitro ADME
Set-up: half-life: dose or concentration left out as unconfirmed
Text: The first droplet 12 can mimic the intestinal space, the second droplet 14 can mimic an enterocyte, and the third droplet 16 can mimic the blood. The interior of each droplet 12, 14, 16 comprises a buffer (see Table 1) that mimics the pH and salt composition of the respective compartment. The barrier layer or artificial membrane between each pair of adjacent droplets can be an equal mixture of the phospholipids L-α-phosphatidylcholine (PC) and L-α-phosphatidylethanolamine (PE). The size of the droplets 116 can mimic the volume of human cells.
To prepare the lipid solutions, chloroform was removed from the lipid stock solutions by placing 10 mg (e.g., 400 μL of a 25 mgmL^−1 solution) of lipids in a 10 mL glass roundbottom flask, and rotating the flask under a stream of nitrogen gas to create a thin film. The flask was then placed in a desiccator under vacuum for 1 hour to remove residual solvent. […]
During use, the microfluidic devices were mounted in a heating platform set to 37° C. on a microscope stage (e.g., a Nikon Eclipse Ti2-E or a Nikon Eclipse Ti2-U inverted microscope) for visualization. […] Fluorescence and brightfield images for fluorescence experiments were captured using a measurement camera (e.g., a Hamamatsu ORCA Flash4.0 V3, with a Solis 1C cold white LED (e.g., from Thorlabs) and a GFP SemrockBrightline large field of view filter cube (e.g., from Nikon).
Reagents were introduced into the microfluidic devices using a pressure pump (e.g., an Elveflow OB1 MK3 pressure pump), four 1.5 mL Eppendorf tubes as reservoirs and four matched lengths of PTFE tubing. […] Following equilibration, the main chamber was monitored in Motion Blitz Director for quantification of device performance, and NIS Elements Advanced Research (Nikon, version 5.11.01) for fluorescence data collection. Following formation of a tripartite DIB network for a fluorescence experiment, flow was stopped from all reservoirs from within the Elveflow control software. […]

O=C1OC2(c3ccc(O)cc3Oc3cc(O)ccc32)c2ccccc21 [fluorescein]
compartment preference in control triplets (100 µM): clear preference for pH 7.4 compartments | Papp (DIB network treated as two compartment model, intestinal space to enterocyte droplet, Equation (3), data of FIG. 6): (5.5±0.8)×10^−5 cms^−1 | half-life (DIB network, intestinal space droplet (pH 6.5) into enterocyte droplet (pH 7.4), 37° C., exponential curve fit, FIG. 5, read-out: half-life (t1/2) of the fluorophore in the intestinal space (converted)): 1.8 min

Reference: US11673139B2, “Microfluidic platforms for drug discovery” (UVic Industry Partnerships Inc., priority 2020, dated 2023)
